# Assay results reported in US12215354B2, “Differentiation of human embryonic stem cells into single hormonal insulin positive cells” (Janssen Biotech, Inc., priority 2011, dated 2025).
# Test system: human embryonic stem cell line H1
# Test: Immune staining for insulin, glucagon and somatostatin hormones at end of stage 5 (Example 11)
# Type: cell-based
# Conditions: percentage of the entire hormone count, 0.25 mM ascorbic acid
# Experimental: Cells of the human embryonic stem cell line H1 at various passages (passage 40 to passage 52) were seeded as single cells at a density of 100,000 cells/cm^2 on MATRIGEL™ (1:30 dilution) coated dishes in mTesr™1 media and 10 μM of Y27632. Forty eight hours post seeding, cultures were differentiated into pancreatic endocrine lineage as follows: • a. Stage 1 (Definitive Endoderm (DE)−3 days): Prior to start of DE, the cultures were washed and incubated with incomplete PBS (no Mg or Ca) for 30 seconds followed by addition of the stage 1 media. Human embryonic stem cells cultured as single cells on MATRIGEL™-coated dishes were treated with MCDB-131 medium supplemented with 0.1% fatty acid-free BSA, 0.0012 g/ml sodium bicarbonate, 1× GLUTAMAX™, 5 mM D-Glucose, 100 ng/ml GDF8, and 1 μM MCX compound (GSK3B inhibitor) for one day. Cells were then treated with MCDB-131 medium supplemented with 0.1% fatty acid-free BSA, 0.0012 g/ml sodium bicarbonate, 1× GLUTAMAX™, 5 mM glucose, 100 ng/ml GDF8, and 100 nM MCX compound for day two, followed by an additional day in MCDB-131 medium supplemented with 0.1% fatty acid-free BSA, 0.0012 g/ml sodium bicarbonate, 1× GLUTAMAX™, 5 mM Glucose, and 100 ng/ml GDF8. • b. Stage 2 (Primitive gut tube−2 days): Stage 1 cells were treated with MCDB-131 medium supplemented with 0.1% fatty acid-free BSA, 0.0012 g/ml sodium bicarbonate, 1× GLUTAMAX™, 5 mM D-Glucose, and 25 ng/ml FGF7 for two days. • c. Stage 3 (Foregut−2 days): Stage 2 cells were treated with MCDB-131 medium supplemented with 1:200 dilution of ITS-X, 2.5 mM Glucose, 1× GLUTAMAX™, 0.0015 g/ml sodium bicarbonate, 2% fatty acid-free BSA, 10 ng/ml Activin A, 25 ng/ml FGF7, 0.25 μM SANT-1, 1 μM RA, 200 nM TPB (PKC activator), 100 nM LDN-193189 (BMP receptor inhibitor) for one day. Cells were then treated with MCDB-131 medium supplemented with 1:200 dilution of ITS-X, 2.5 mM Glucose, 1× GLUTAMAX™, 0.0015 g/ml sodium bicarbonate, 2% fatty acid-free BSA, 10 ng/ml Activin A, 25 ng/ml FGF7, 0.25 μM SANT-1, 1 μM RA, 200 nM TPB (PKC activator), 10 nM LDN-193189 for an additional day. […]
structure (smiles),measurement,value
O=C1O[C@H]([C@@H](O)CO)C(O)=C1O [ascorbic acid],% Polyhormonal,36%
same,% glucagon + plus % somatostatin+,44%
same,% single hormonal Insulin+,55%
